Experimental data published in patent US10292997B2, “Compositions and methods for stimulating wound healing” (priority 2011, dated 2019).

Tested on: full thickness skin wounds
Test: Wound closure rate of excised full thickness skin wounds treated with gel formulations
Assay type: in vivo, Hartley-derived albino guinea pigs

Insulin: Insulin alone as control; non-steroidal anabolic hormone, vehicle not stated in the table
Peak Closure Day (day of maximum closure rate): 3.0 days | Closure % (day) 50% (day on which 50% wound closure is reached, gel about 1 cc/cm^2, dressing changed every 48 hours): 5.0 days | % Closure at Peak Closure Day (wound closure reached on the peak closure day): 30%
